Measured values published in patent US20230022803A1, “NOVEL CRYSTALLINE FORM OF GPR40 AGONIST” (ILDONG Pharmaceutical Co., Ltd., priority 2021, published 2023).
Converted amounts (≈) assume the structure as drawn. Read-outs that look alike come from different tables or passages of the source.

Legend:
[1] = Visual solubility analysis in 13 solvents; assay type: physicochemical; details: organic solvent or mixture, thermodynamic from solid, read-out: Solubility (S)
Description: The solubility of the crystalline form Compound 1 was visually determined in 13 solvents. 5.0±0.2mg of the crystalline form Compound 1 was stirred at 20° C. with increasing volumes of solvents until a clear solution was visually observed.

[2] = Thermal analysis (TGA and DSC); assay type: physicochemical
From the text: The crystalline form Compound 1 prepared according to Example 1 was characterized by thermal gravimetric analysis (TGA) and differential scanning calorimetry (DSC). The TGA analysis was made by a TA Q5000 instrument. The DSC analysis was made by a TA Q2000 MDSC instrument. The instrumental parameters used are listed below.
FIGS. 2A and 2B show the results of the TGA and DSC analyses, respectively.

[3] = Gravimetric vapor sorption (GVS) analysis; assay type: physicochemical
From the text: The GVS analysis was made using an IGA Sorp instrument by Hiden Analytical. The instrumental parameters are listed below.
FIG. 6 illustrates the GVS analysis result.

GPR40 = GPR40 (Homo sapiens, UniProt O14842); test: Cell-based aequorin assay (agonistic activity); details: method and reference agonist of U.S. 2020/0223833
GPR40, sequence (O14842 whole entry, species assumed): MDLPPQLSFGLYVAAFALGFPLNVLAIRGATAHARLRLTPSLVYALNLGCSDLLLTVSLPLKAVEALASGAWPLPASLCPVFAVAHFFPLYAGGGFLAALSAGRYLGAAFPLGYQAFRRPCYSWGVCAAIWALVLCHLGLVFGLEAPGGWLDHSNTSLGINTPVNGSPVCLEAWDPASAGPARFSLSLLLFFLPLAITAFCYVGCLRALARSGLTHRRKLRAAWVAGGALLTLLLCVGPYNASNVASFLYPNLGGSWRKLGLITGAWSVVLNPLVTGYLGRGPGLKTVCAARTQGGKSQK
Description: The agonistic activity of the crystalline form of Compound 1 was measured by using the method described in U.S. Patent Application Publication No. 2020/0223833, which is incorporated herein by reference. The agonistic activity of the crystalline form of Compound 1 was higher than 70% of the activity of the reference agonist used in U.S. Patent Application Publication No. 2020/0223833, which falls within the category of the publication.

- solubility ([1]; 2-Butanone, 20° C.): > 100000 µg/mL
- solubility ([1]; 2-Propanol, 20° C.): 5000 to 6000 µg/mL (≈ 9.97 to 12 mM)
- solubility ([1]; Acetone, 20° C.): > 100000 µg/mL
- solubility ([1]; Acetone/water 90:10, 20° C.): > 100000 µg/mL
- solubility ([1]; Acetonitrile, 20° C.): 6000 to 8000 µg/mL (≈ 12 to 16 mM)
- solubility ([1]; Dichloromethane, 20° C.): > 100000 µg/mL
- solubility ([1]; Ethyl acetate, 20° C.): 50000 to 100000 µg/mL (≈ 99.7 to 199 mM)
- solubility ([1]; Methanol, 20° C.): 6000 to 8000 µg/mL (≈ 12 to 16 mM)
- solubility ([1]; Methanol/water 90:10, 20° C.): 1000 to 2000 µg/mL (≈ 1.99 to 3.99 mM)
- solubility ([1]; Methyl tert-butyl ether, 20° C.): 2000 to 5000 µg/mL (≈ 3.99 to 9.97 mM)
- solubility ([1]; Tetrahydrofuran, 20° C.): > 100000 µg/mL
- solubility ([1]; Toluene, 20° C.): 10000 to 12000 µg/mL (≈ 19.9 to 23.9 mM)
- solubility ([1]; i-Propyl acetate, 20° C.): 17000 to 25000 µg/mL (≈ 33.9 to 49.8 mM)
- thermal stability ([2]; TGA/DSC, heating rate 10° C./min): relatively high thermal stability
- TGA weight loss ([2]; from ambient to 130° C.): 0.13 % w/w
- 2nd adsorption cycle (0-90% RH), adsorbed water ([3]; GVS isotherm, 25 °C, 0-90% RH): 0.135 % w/w
- 1st adsorption cycle (50-90% RH), adsorbed water ([3]; GVS isotherm, 25 °C, 50-90% RH): 0.119 % w/w
- 1st desorption cycle (90-0% RH), desorbed water ([3]; GVS isotherm, 25 °C, 90-0% RH): 0.127 % w/w
- hygroscopic behavior ([3]; GVS, 25 °C): non-hygroscopic
- weight gain ([3]; from dryness to 90% RH during the second adsorption cycle): less than 0.2 % w/w
- agonistic activity relative to the activity of the reference agonist (GPR40): higher than 70%
Compound: CC#C[C@@H](CC(=O)O)c1ccc(O[C@@H]2CCc3c(-c4ccc(O[C@@H]5CCOC5)nc4)ccc(F)c32)cc1 [Crystalline Form Compound 1, (S)-3-(4-(((R)-7-Fluoro-4-(6-(((R)-tetrahydrofuran-3-yl)oxy)pyridin-3-yl)-2,3-dihydro-1H-inden-1-yl)oxy)phenyl)hex-4-ynoic acid]
